According to US20250230193A1, “CYCLIC COMPOUND HAVING SELECTIVE KRAS INHIBITORY EFFECT ON HRAS AND NRAS” (CHUGAI SEIYAKU KABUSHIKI KAISHA, priority 2022, published 2025):
Where a SMILES comes first, the peptide text is derived from it. Bridges are numbered along the chain shown (N, C = ends). [ ]: non-standard residue; d: D form. The star is where a group is joined. hPhe(3-Cl-4-CF3) = N[C@@H](CCc1ccc(C(F)(F)F)c(Cl)c1)C(=O)O; NPrPhe(4-CF3) = CCCN[C@@H](Cc1ccc(C(F)(F)F)cc1)C(=O)O; NMeGly(cPent) = CN[C@H](C(=O)O)C1CCCC1; Pro(4,4-F2) = O=C(O)[C@@H]1CC(F)(F)CN1; NMeD = CN[C@@H](CC(=O)O)C(=O)O; NMeL = CN[C@@H](CC(C)C)C(=O)O; Morpholide = C1CN(*)CCO1; NMeA = CN[C@@H](C)C(=O)O; Ac5c = NC1(C(=O)O)CCCC1; Aze = O=C(O)[C@@H]1CCN1; Ac4c = NC1(C(=O)O)CCC1; Sar = CNCC(=O)O

Assays:
[1] = molecular target: GDP-bound NRAS wild-type protein (Homo sapiens, UniProt P01111); test: Binding to NRAS by surface plasmon resonance (SPR), Single Cycle Kinetics; settings: SPR
[2] = molecular target: GDP-bound HRAS wild-type protein (Homo sapiens, UniProt P01112); test: Binding to HRAS by surface plasmon resonance (SPR), Single Cycle Kinetics; settings: SPR
[3] = KD ratio, GDP-bound NRAS wild-type vs GDP-bound KRAS wild-type
[4] = KD ratio, GDP-bound HRAS wild-type vs GDP-bound KRAS wild-type
[5] = GDP-bound NRAS wild-type vs GDP-bound KRAS wild-type
[6] = GDP-bound HRAS wild-type vs GDP-bound KRAS wild-type

GDP-bound HRAS wild-type protein, sequence (P01112 whole entry): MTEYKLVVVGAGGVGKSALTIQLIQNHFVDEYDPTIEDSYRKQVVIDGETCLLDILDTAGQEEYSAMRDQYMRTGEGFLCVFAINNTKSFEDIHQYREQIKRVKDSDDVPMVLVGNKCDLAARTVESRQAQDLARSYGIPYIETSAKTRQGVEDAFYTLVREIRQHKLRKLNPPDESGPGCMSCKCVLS
GDP-bound NRAS wild-type protein, sequence (P01111 whole entry): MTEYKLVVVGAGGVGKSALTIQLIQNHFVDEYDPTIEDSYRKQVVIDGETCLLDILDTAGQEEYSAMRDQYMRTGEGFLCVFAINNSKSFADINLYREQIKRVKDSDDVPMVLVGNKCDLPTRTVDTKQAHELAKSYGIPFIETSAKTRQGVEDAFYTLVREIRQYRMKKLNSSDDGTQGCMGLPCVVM

CCO[C@@H]1C[C@H]2C(=O)NC3(CCCC3)C(=O)N(C)[C@@H](C3CCCC3)C(=O)N(C)[C@H](C(=O)N3CCOCC3)CC(=O)N(C)[C@@H](COC)C(=O)N[C@@H]([C@@H](C)CC)C(=O)N(C)CC(=O)N(C)[C@H]3CCCCCN(C3=O)[C@@H](Cc3ccc(C(F)(F)F)cc3)C(=O)N(C)CC(=O)N[C@@H](CCc3cc(F)c(C(F)(F)F)c(F)c3)C(=O)N2C1 [PP0841]
NRAS/KRAS (ratio of KD value with respect to NRAS to KD value with respect to KRAS) [1, 3]: B (a compound having 3 or more and less than 10 is denoted as B)
HRAS/KRAS (ratio of KD value with respect to HRAS to KD value with respect to KRAS) [2, 4]: B (a compound having 3 or more and less than 10 is denoted as B)

CCO[C@@H]1C[C@H]2C(=O)NC3(CC(C)(C)C3)C(=O)N(C)[C@@H](C3CCCC3)C(=O)N(C)[C@H](C(=O)N(C)CC)CC(=O)N(C)[C@@H](COC)C(=O)N[C@@H]([C@@H](C)CC)C(=O)N(C)CC(=O)N(C)[C@H]3C/C=C\CCN(C3=O)[C@@H](Cc3ccc(C)cc3)C(=O)N(C)CC(=O)N[C@@H](CCc3ccc(C(F)(F)F)c(OC)c3)C(=O)N2C1 [PP2392]
NRAS/KRAS (ratio of KD value with respect to NRAS to KD value with respect to KRAS) [1, 5]: A (a compound having 10 or more and less than 20 is denoted as A)
HRAS/KRAS (ratio of KD value with respect to HRAS to KD value with respect to KRAS) [2, 6]: A (a compound having 10 or more and less than 20 is denoted as A)

CCCN1C(=O)CN(C)C(=O)[C@@H]2CCN2C(=O)[C@H]([C@@H](C)CC)NC(=O)[C@H](CC(C)C)N(C)C(=O)C[C@@H](C(=O)N2CCOCC2)NC(=O)[C@H](C2CCCC2)N(C)C(=O)C2(CCC2)NC(=O)[C@@H]2CC(F)(F)CN2C(=O)[C@H](CCc2ccc(C(F)(F)F)c(Cl)c2)NC(=O)CN(C)C(=O)[C@@H]1Cc1ccc(C(F)(F)F)cc1 [PP0340] ([NMeL]I[Aze][Sar][NPrPhe(4-CF3)][Sar][hPhe(3-Cl-4-CF3)][Pro(4,4-F2)][Ac4c][NMeGly(cPent)]D-Morpholide; lactam N-11)
NRAS/KRAS (ratio of KD for GDP-bound NRAS wild-type to KD for KRAS) ([1]; KD ratio NRAS/KRAS): B (a compound having 3 or more and less than 10 is denoted as B)
HRAS/KRAS (ratio of KD for GDP-bound HRAS wild-type to KD for KRAS) ([2]; KD ratio HRAS/KRAS): B (a compound having 3 or more and less than 10 is denoted as B)

CC[C@H](C)[C@@H]1NC(=O)[C@H](C(C)C)N(C)C(=O)C[C@@H](C(=O)N(C)CC)N(C)C(=O)[C@H](C2CCCC2)N(C)C(=O)C2(CC(C)(C)C2)NC(=O)[C@@H]2C[C@H](C)CN2C(=O)[C@H](CCc2ccc(C(F)(F)F)c(OC)c2)NC(=O)CN(C)C(=O)[C@H](Cc2ccc(C(F)(F)F)cc2)N2CC/C=C\C[C@@H](C2=O)N(C)C(=O)CN(C)C1=O [PP2003]
NRAS/KRAS (ratio of KD value for NRAS to KD value for KRAS) [1, 3]: A (a compound having 10 or more and less than 20 is denoted as A)
HRAS/KRAS (ratio of KD value for HRAS to KD value for KRAS) [2, 4]: B (a compound having 3 or more and less than 10 is denoted as B)

CC[C@H](C)[C@@H]1NC(=O)[C@H](C)N(C)C(=O)C[C@@H](C(=O)N2CCOCC2)N(C)C(=O)[C@H](C2CCCC2)N(C)C(=O)C2(CCC2)NC(=O)[C@@H]2CC(F)(F)CN2C(=O)[C@H](CCc2cc(F)c(C(F)(F)F)c(F)c2)NC(=O)CN(C)C(=O)[C@H](Cc2ccc(C(F)(F)F)cc2)N2CCCCC[C@@H](C2=O)N(C)C(=O)CN(C)C1=O [PP0471]
NRAS/KRAS (ratio of KD value with respect to GDP-bound NRAS wild-type protein to KD value with respect to KRAS) ([1]; KD ratio NRAS/KRAS): B (a compound having 3 or more and less than 10 is denoted as B)
HRAS/KRAS (ratio of KD value with respect to GDP-bound HRAS wild-type protein to KD value with respect to KRAS) ([2]; KD ratio HRAS/KRAS): B (a compound having 3 or more and less than 10 is denoted as B)

CC[C@H](C)[C@@H]1NC(=O)[C@H](COC)N(C)C(=O)C[C@@H](C(=O)N(CC)CC)N(C)C(=O)[C@H](C2CCCC2)N(C)C(=O)C2(CC(C)(C)C2)NC(=O)[C@@H]2C[C@H](C)CN2C(=O)[C@H](CCc2cc(F)c(C(F)(F)F)c(F)c2)NC(=O)CN(C)C(=O)[C@H](Cc2ccc(C)cc2)N2CC/C=C\C[C@@H](C2=O)N(C)C(=O)CN(C)C1=O [PP2455]
NRAS/KRAS (ratio of KD value with respect to NRAS to KD value with respect to KRAS) [1, 5]: AA (a compound having 20 or more is denoted as AA)
HRAS/KRAS (ratio of KD value with respect to HRAS to KD value with respect to KRAS) [2, 6]: A (a compound having 10 or more and less than 20 is denoted as A)

CCCN1C(=O)[C@@H]2CCN2C(=O)[C@H](C)N(C)C(=O)[C@H]([C@@H](C)CC)NC(=O)[C@H](CC(C)C)N(C)C(=O)C[C@@H](C(=O)N2CCOCC2)N(C)C(=O)[C@H](C2CCCC2)N(C)C(=O)C2(CCCC2)NC(=O)[C@@H]2CCN2C(=O)[C@H](CCc2ccc(C(F)(F)F)c(Cl)c2)NC(=O)CN(C)C(=O)[C@@H]1Cc1ccc(C(F)(F)F)cc1 [PP0281] ([NMeL]I[NMeA][Aze][NPrPhe(4-CF3)][Sar][hPhe(3-Cl-4-CF3)][Aze][Ac5c][NMeGly(cPent)][NMeD]-Morpholide; lactam N-11)
NRAS/KRAS (ratio of KD for GDP-bound NRAS wild-type to KD for KRAS) ([1]; KD ratio NRAS/KRAS): C (A compound having a KD ratio of 0.1 or more and less than 3 is denoted as C)
HRAS/KRAS (ratio of KD for GDP-bound HRAS wild-type to KD for KRAS) ([2]; KD ratio HRAS/KRAS): C (A compound having a KD ratio of 0.1 or more and less than 3 is denoted as C)
